Assay results taken from patent US4705749A, “Process and reagent for the determination of glycerol with the use of glycerol kinase” (Boehringer Mannheim GmbH, priority 1983, dated 1987).

Tests used:
[1] = target: T1, GK from Bacillus stearothermophilus (Geobacillus stearothermophilus, UniProt A0ACH1EBP7); assay: Comparative investigation of inhibitors, reaction rate ΔE/min (Table 1); assay type: biochemical; settings: sample glycerol 6 mMole/liter, 1:100, 25° C., 546 nm
T1 construct: coupled glycerol phosphate oxidase/peroxidase test
T1 sequence (A0ACH1EBP7 1-496): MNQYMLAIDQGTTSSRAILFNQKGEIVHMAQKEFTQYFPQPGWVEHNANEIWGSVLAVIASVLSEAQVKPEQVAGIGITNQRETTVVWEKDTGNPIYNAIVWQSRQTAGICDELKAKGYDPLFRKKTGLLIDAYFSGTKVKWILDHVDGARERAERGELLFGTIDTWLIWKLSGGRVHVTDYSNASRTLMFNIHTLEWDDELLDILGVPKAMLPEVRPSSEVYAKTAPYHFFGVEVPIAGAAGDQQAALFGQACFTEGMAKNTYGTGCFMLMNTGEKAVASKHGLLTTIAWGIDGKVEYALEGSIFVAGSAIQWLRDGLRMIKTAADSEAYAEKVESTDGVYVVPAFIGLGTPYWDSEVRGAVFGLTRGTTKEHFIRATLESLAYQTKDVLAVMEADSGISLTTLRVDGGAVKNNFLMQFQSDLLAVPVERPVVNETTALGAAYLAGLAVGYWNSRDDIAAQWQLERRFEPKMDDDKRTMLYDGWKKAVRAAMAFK
Method: (§1) Comparative investigation of various inhibitors according to the present invention with GK of varying origin: […]
(§2) tris/HCl 0.1 mole/litre, pH 7.6
(§3) glycerol phosphate oxidase
(§4) glycerol kinase 2.0 U/ml.
(§5) magnesium sulphate heptahydrate
(§6) 4-chlorophenol 3.5 mMole/litre
(§7) 4-aminoantipyrine 0.35 mMole/litre
(§8) Sample: aqueous glycerol solution 6 mMole/liter sample/reagent ratio 1:100 (20 μl./2 ml.)
(§9) measurement wavelength 546 nm. (ΔE/min. in each case read off from the linear region)

GK from Escherichia coli = GK from Escherichia coli (Escherichia coli, UniProt P0A6F3); assay: Comparative investigation of inhibitors, reaction rate ΔE/min (Table 2); assay type: biochemical; settings: sample glycerol 6 mMole/liter, 1:100, 25° C., 546 nm
Sequence of GK from Escherichia coli (P0A6F3 whole entry): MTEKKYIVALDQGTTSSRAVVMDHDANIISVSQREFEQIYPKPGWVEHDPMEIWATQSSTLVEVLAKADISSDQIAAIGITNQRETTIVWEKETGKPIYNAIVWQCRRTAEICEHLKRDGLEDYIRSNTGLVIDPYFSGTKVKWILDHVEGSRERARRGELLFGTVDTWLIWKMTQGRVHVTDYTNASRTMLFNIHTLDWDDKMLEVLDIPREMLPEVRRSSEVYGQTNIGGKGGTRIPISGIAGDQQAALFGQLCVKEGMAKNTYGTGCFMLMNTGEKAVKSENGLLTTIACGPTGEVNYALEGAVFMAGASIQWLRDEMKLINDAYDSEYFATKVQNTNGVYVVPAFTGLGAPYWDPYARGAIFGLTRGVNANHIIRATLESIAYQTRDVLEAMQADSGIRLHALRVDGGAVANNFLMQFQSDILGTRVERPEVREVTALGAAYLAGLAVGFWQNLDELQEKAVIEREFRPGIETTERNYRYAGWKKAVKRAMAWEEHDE
Method: as §1, §2, §3, §4, §5, §6, §7, §8, §9

Row | Compound | ΔE/min ([1]; inhibitor 10 mMol/l) [min⁻¹] | ΔE/min ([1]; inhibitor 20 mMol/l) [min⁻¹] | ΔE/min ([1]; inhibitor 50 mMol/l) [min⁻¹] | ΔE/min ([1]; inhibitor 100 mMol/l) [min⁻¹] | ΔE/min (GK from Escherichia coli; inhibitor 20 mMol/l) [min⁻¹] | ΔE/min (GK from Escherichia coli; inhibitor 50 mMol/l) [min⁻¹] | ΔE/min (GK from Escherichia coli; inhibitor 100 mMol/l) [min⁻¹] | ΔE/min (GK from Escherichia coli; inhibitor 150 mMol/l) [min⁻¹] | ΔE/min ([1]; inhibitor 2 mMol/l) [min⁻¹] | ΔE/min ([1]; inhibitor 5 mMol/l) [min⁻¹] | ΔE/min (GK from Escherichia coli; inhibitor 5 mMol/l) [min⁻¹] | ΔE/min (GK from Escherichia coli; inhibitor 10 mMol/l) [min⁻¹]
1 | C[C@H](O)[C@@H](O)[C@@H](O)[C@H](O)C=O [L-fucose] | 0.230 | 0.153 | 0.077 | 0.039 | 0.352 | 0.286 | 0.209 | 0.142 | – | – | – | –
2 | O=C[C@@H](O)[C@H](O)[C@@H](O)CO [L-xylose] | 0.105 | 0.062 | – | – | 0.118 | 0.072 | – | – | 0.320 | 0.188 | 0.228 | 0.169
3 | O=C[C@@H](O)[C@H](O)[C@H](O)CO [D-arabinose] | 0.426 | 0.349 | 0.249 | 0.121 | 0.363 | 0.302 | 0.231 | 0.167 | – | – | – | –
